Assay results: patent publication US20100056565A1, “Heterocyclic Derivatives as M3 Muscarinic Receptors” (priority 2007, published 2010)
pKi: −log10 of the molar value. Structures can show the parent of a compound that is named as a salt.

The compounds below were run against T1, Recombinant human M3 receptor (Homo sapiens, UniProt P20309) (assay: biochemical). Settings: M3 Ki (SPA format, SPA format).
T1 construct: expressed in transfected cells; host or cells: CHO-K1 cells (membranes)
T1 sequence (P20309 whole entry): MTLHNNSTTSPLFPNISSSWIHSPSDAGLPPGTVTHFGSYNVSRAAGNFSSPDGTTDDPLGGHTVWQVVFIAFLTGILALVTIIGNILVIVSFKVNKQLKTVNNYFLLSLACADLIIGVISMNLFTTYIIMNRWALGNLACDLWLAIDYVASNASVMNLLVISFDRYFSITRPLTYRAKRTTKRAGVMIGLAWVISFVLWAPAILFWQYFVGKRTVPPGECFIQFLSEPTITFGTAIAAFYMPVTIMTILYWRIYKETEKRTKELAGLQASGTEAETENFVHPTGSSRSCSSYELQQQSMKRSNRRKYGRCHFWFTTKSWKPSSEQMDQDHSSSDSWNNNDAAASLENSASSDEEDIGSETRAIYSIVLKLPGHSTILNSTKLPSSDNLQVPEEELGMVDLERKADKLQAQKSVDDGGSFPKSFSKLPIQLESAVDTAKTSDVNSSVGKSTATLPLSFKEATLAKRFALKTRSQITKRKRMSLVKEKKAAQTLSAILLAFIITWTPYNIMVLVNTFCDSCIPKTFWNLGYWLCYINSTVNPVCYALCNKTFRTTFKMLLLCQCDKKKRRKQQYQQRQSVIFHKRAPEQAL
Assay type: binding
Protocol: Recombinant human M3 receptor was expressed in CHO-K1 cells. Cell membranes were prepared and binding of [3H]-N-methyl scopolamine ([3H]-NMS) and compounds was assessed by a scintillation proximity assay (SPA). The incubation time was 16 hours at room temperature in the presence of 1% (v/v) DMSO. The assay was performed in white 96 well clear-bottomed NBS plates (Corning). Prior to the assay, the CHO cell membranes containing M3 receptor were coated onto SPA WGA (Wheat germ agglutinin) beads (GE Healthcare). Non specific binding was determined in the presence of 1 μM Atropine.
Radioactivity was measured on a Microbeta scintillation counter (PerkinElmer) using a 3H protocol with a 2 minutes per well read time. […] Concentration dependent inhibition of [3H]-NMS binding by compounds was expressed as pIC50.
Compound O=C(O[C@H]1C[N+]2(Cc3cnc([C@](O)(c4ccccc4)C4CCCCC4)o3)CCC1CC2)c1ccccc1 [Example 14, (R)-3-benzoyloxy-1-[2-((R)-cyclohexyl-hydroxy-phenyl-methyl)-oxazol-5-ylmethyl]-1-azonia-bicyclo[2.2.2]octane; formate] has a pKi of 7.70 to 8.30.

Same assay, conditions: SPA format; read-out: M3 Ki (SPA format)
Compound Cc1ccc(CO[C@H]2C[N+]3(Cc4cnc([C@](O)(c5ccccc5)C5CCCCC5)o4)CCC2CC3)cc1 [Example 34, (R)-1-[2-((R)—Cyclohexyl-hydroxy-phenyl-methyl)-oxazol-5-ylmethyl]-3-(4-methyl-benzyloxy)-1-azonia-bicyclo[2.2.2]octane; bromide] has a pKi greater than 8.30.
O[C@](c1ccccc1)(c1nnc(C[N+]23CCC(CC2)[C@@H](OCc2ccc(F)cc2)C3)o1)C1CCCCC1 [Example 140, (R)-1-[5-((R)—Cyclohexyl-hydroxy-phenyl-methyl)-[1,3,4]oxadiazol-2-ylmethyl]-3-(4-fluoro-benzyloxy)-1-azonia-bicyclo[2.2.2]octane; bromide] was tested, and the pKi was greater than 8.30.
Compound O[C@](c1ccccc1)(c1ncc(C[N+]23CCC(CC2)C(COc2ccc(F)cc2)C3)o1)C1CCCCC1 (single isomer, unassigned) [Example 87] has a pKi greater than 8.30.
Compound O[C@](c1ccccc1)(c1nnc(C[N+]23CCC(CC2)[C@@H](OCc2ccccc2)C3)o1)C1CCCCC1 [Example 56, (R)-3-benzyloxy-1-[5-((R)-cyclohexyl-hydroxy-phenyl-methyl)-[1,3,4]oxadiazol-2-ylmethyl]-1-azonia-bicyclo[2.2.2]octane; formate] has a pKi greater than 8.30.
For OC(c1ccccc1)(c1ccccc1)c1noc(C[N+]23CCC(CC2)[C@H](COc2ccccc2)C3)n1 [Example 93, (S)-1-[3-(Hydroxy-diphenyl-methyl)-[1,2,4]oxadiazol-5-ylmethyl]-3-phenoxymethyl-1-azonia-bicyclo[2.2.2]octane; chloride], the pKi was greater than 8.30.
OC(c1ccccc1)(c1ccccc1)c1noc(C[N+]23CCC(CC2)[C@@H](Sc2ccccc2)C3)n1 [Example 118, (R)-1-[3-(Hydroxy-diphenyl-methyl)-[1,2,4]oxadiazol-5-ylmethyl]-3-phenylsulfanyl-1-azonia-bicyclo[2.2.2]octane; chloride] showed a pKi greater than 8.30.
In the case of OC(c1ccccc1)(c1ccccc1)c1ncc(C[N+]23CCC(CC2)[C@@H](Sc2ccccc2)C3)o1 [Example 68, 1-[2-(Hydroxy-diphenyl-methyl)-oxazol-5-ylmethyl]-3-phenylsulfanyl-1-azonia-bicyclo[2.2.2]octane; bromide], the pKi was greater than 8.30.
O[C@](c1ccccc1)(c1ncc(C[N+]23CCC(CC2)[C@H](CSc2ccc(Cl)cc2)C3)o1)C1CCCCC1 [Example 110, (S)-3-(4-Chloro-phenylsulfanylmethyl)-1-[2-((R)cyclohexyl-hydroxy-phenyl-methyl)-oxazol-5-ylmethyl]-1-azonia-bicyclo[2.2.2]octane; bromide] was tested, and the pKi was greater than 8.30.
Work on OC(c1ccccc1)(c1ccccc1)c1ncc(C[N+]23CCC(CC2)C(CCc2ccccc2)C3)o1 (stereo not shown) [Example 37, 1-[2-(Hydroxy-diphenyl-methyl)-oxazol-5-ylmethyl]-3-phenethyl-1-azonia-bicyclo[2.2.2]octane; bromide] yielded a pKi greater than 8.30.
Cc1ccc(O[C@H]2C[N+]3(Cc4nc(C(O)(c5ccccc5)c5ccccc5)no4)CCC2CC3)cc1Cl [Example 104, (R)-3-(3-Chloro-4-methyl-phenoxy)-1-[3-(hydroxy-diphenyl-methyl)-[1,2,4]oxadiazol-5-ylmethyl]-1-azonia-bicyclo[2.2.2]octane; chloride] gave a pKi greater than 8.30.
Work on OC(c1ccccc1)(c1ccccc1)c1noc(C[N+]23CCC(CC2)[C@@H](Oc2ccccc2)C3)n1 [Example 103, (R)-1-[3-(Hydroxy-diphenyl-methyl)-[1,2,4]oxadiazol-5-ylmethyl]-3-phenoxy-1-azonia-bicyclo[2.2.2]octane; chloride] yielded a pKi greater than 8.30.
C=CCOCC1C[N+]2(Cc3cnc([C@](O)(c4ccccc4)C4CCCCC4)o3)CCC1CC2 (single isomer, unassigned) [Example 90, formate] was tested, and the pKi was 7.70 to 8.30.
